# Starred links: 1 amine or outer side, 2 acyl side, 3 side chain; linkers in the order of their positions; H or OH if unused. Non-standard residues stand in square brackets, D forms with d. Residues, ends and D or L forms follow the SMILES beside them. *: point of attachment. X6 = O=C(C1[C@H]2CC[C@H](C2)N1[*:1])[*:2]; X5 = NC12CC3CC(C1)CC(CC(=O)*)(C3)C2; dBta = N[C@H](Cc1csc2ccccc12)C(=O)O; dCit = NC(=O)NCCC[C@@H](N)C(=O)O; dTle = CC(C)(C)[C@@H](N)C(=O)O; Tle = CC(C)(C)[C@H](N)C(=O)O; dNle = CCCC[C@@H](N)C(=O)O; Nle = CCCC[C@H](N)C(=O)O; Api = NC1(C(=O)O)CCNCC1; X4 = O=C([C@H]1CNCCO1)*
# Biological target: GHSR-1a (Homo sapiens (Human), UniProt Q92847)
# Assay: Agonistic activity for GHSR-1a, FLIPR calcium assay
# Assay type: cell-based
# Conditions: agonist activity assay, Flp In-CHO-GHSR Stable Pool cells, FLIPR calcium 6 kit; read-out: The activity (IC50) of polypeptide compounds for GHSR-1a
# Description: The use of recombinant expression of GHSR provides several advantages; for example, the receptor can be expressed in a determined cell system, so that it is easier to distinguish between the reactions of the compounds with GHSR and the reactions with other receptors. For example, cell lines such as HEK293, COS7 and CHO that […] can be used to express GHSR, and the same cell lines without expression vectors are used as controls.
# The activity of GHSR-1a can be measured using different techniques, for example, by detecting the change in the intracellular conformation of GHSR, the change in G-protein coupling activity, and/or the change in intracellular messengers. Techniques such as measuring intracellular Ca^2+ are preferably used to measure the activity of GHSR-1a. Examples of techniques known in the art that can be used to measure Ca^2+ include the use of FLIPR® calcium ion assay kits, among others. The FLIPR® calcium ion assay kits use a calcium ion sensitive indicator and a masking dye to ensure that a researcher carries out high-sensitivity fluorescent screening for G protein-coupled receptors, ion channels and other calcium ion sensitive targets. This experiment used FLIPR calcium 6 assay kits and FLIPR calcium 6-QF assay kits.
# • a) Cell line: Flp In-CHO-GHSR Stable Pool; • b) Complete medium: F12K+10% fetal bovine serum+1×penicillin-streptomycin (PS)+600 μg/mL hygromycin B; • c) Cell seeding medium: F12K+10% fetal bovine serum. • d) Assay buffer: 1× HBSS+20 mM HEPES. • e) […] component A: Assay buffer and component A were left at room temperature (RT), 10 mL of buffer was added to component A, and the mixture was vortexed for 1-2 min and stored at −20° C.
# • a) Compound stock solutions: the powders from in-house synthesis were made into 10 mM stock solutions in DMSO according to the standard protocol. • b) Compound storage: all compounds in DMSO were stored in room temperature desiccators for short-term storage (at most 4 months). The remaining compounds were left at −20 ° C. for long-term storage.
# • a) Flp In-CHO-GHSR Stable Pool cells were cultured in complete medium. • b) The cells were placed in […] cell seeding medium in a 384-well cell culture plate (Corning, 3764) at 7k cells/well and cultured overnight at 37° C. with 5% CO2. • c) 20× component A was thawed at room temperature, diluted with assay buffer to 2×, and left at RT. • d) The Petri dish was taken out of the incubator and equilibrated at room temperature for 10 min. The medium was changed to […]. After the final wash, 20 μL of buffer was kept in each well, 20 μL of 2× component A was then added to each well, and the plate was incubated at 37° C. for 3-5 s. • e) 10 μL of 5× compound was added to the 384-well cell culture plate, and data collection was immediately performed using FLIPR Tetra.
# • 1) Z′ factor=1−3×(SDMax+SDMin)/(MeanMax−MeanMin); • 2) CVMax=(SDMax/MeanMax)×100%; • 3) CVMin=(SDMin/MeanMin)×100%; • 4) S/B=Singal/Background; • 5) Calculation formula for IC50: • Y=Bottom+(Top−Bottom)/(1+10^((LogIC50−X)×HillSlope)) • X: log value of compound concentration; Y: Activation % or Inhibition %
# Sequence of GHSR-1a (Q92847 whole entry): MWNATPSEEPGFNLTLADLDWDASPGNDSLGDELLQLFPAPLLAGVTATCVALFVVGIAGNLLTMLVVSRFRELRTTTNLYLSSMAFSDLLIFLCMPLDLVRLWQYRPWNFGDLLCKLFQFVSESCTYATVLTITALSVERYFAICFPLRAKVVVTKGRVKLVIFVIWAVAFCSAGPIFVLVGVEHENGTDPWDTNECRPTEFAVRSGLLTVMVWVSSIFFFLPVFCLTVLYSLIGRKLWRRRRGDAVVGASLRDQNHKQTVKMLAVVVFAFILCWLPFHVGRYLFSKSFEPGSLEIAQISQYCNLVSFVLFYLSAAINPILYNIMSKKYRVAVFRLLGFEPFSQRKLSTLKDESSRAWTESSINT
row,Compound,IC50
1,NCCCC[C@H](N)C(=O)N[C@H](Cc1csc2ccccc12)C(=O)N[C@H](Cc1c[nH]c2ccccc12)C(=O)N[C@@H](Cc1ccccc1)C(=O)NC1(C(N)=O)CCNCC1 [Compound 5] (H-K[dBta][dW]F[Api]-NH2),> 1000 nM
2,CC(=O)N[C@H](CCCNC(N)=O)C(=O)N[C@H](Cc1csc2ccccc12)C(=O)N[C@H](Cc1c[nH]c2ccccc12)C(=O)N[C@@H](Cc1ccccc1)C(=O)NC1(C(N)=O)CCNCC1 [Compound 6] (Ac-[dCit][dBta][dW]F[Api]-NH2),> 1000 nM
3,CC(=O)N[C@@H](CCCCN)C(=O)N[C@H](Cc1csc2ccccc12)C(=O)N[C@H](Cc1c[nH]c2ccccc12)C(=O)N[C@@H](Cc1ccccc1)C(=O)NC1(C(N)=O)CCNCC1 [Compound 8] (Ac-K[dBta][dW]F[Api]-NH2),> 1000 nM
4,N=C(N)NCCC[C@@H](N)C(=O)N[C@H](Cc1csc2ccccc12)C(=O)N[C@H](Cc1c[nH]c2ccccc12)C(=O)N[C@@H](Cc1ccccc1)C(=O)NC1(C(N)=O)CCNCC1 [Compound 9] (H-[dR][dBta][dW]F[Api]-NH2),101 nM
5,CC(C)(C)[C@@H](N)C(=O)N[C@H](Cc1csc2ccccc12)C(=O)N[C@H](Cc1c[nH]c2ccccc12)C(=O)N[C@@H](Cc1ccccc1)C(=O)NC1(C(N)=O)CCNCC1 [Compound 17] (H-[dTle][dBta][dW]F[Api]-NH2),31.1 nM
6,NC(=O)C1(NC(=O)[C@H](Cc2ccccc2)NC(=O)[C@@H](Cc2c[nH]c3ccccc23)NC(=O)[C@@H](Cc2csc3ccccc23)NC(=O)C2N[C@@H]3CC[C@H]2C3)CCNCC1 (stereo partly drawn) [Compound 29] (H-[X6][dBta][dW]F[Api]-NH2),13.3 nM

# The remaining compounds from weak to strong by IC50, led by results:
row,IC50,Compound
1,1120 nM,NCCCC[C@@H](N)C(=O)N[C@H](Cc1csc2ccccc12)C(=O)N[C@H](Cc1c[nH]c2ccccc12)C(=O)N[C@@H](Cc1ccccc1)C(=O)NC1(C(N)=O)CCNCC1 [Compound 4] (H-[dK][dBta][dW]F[Api]-NH2)
2,935 nM,CC(=O)N[C@H](CCCCN)C(=O)N[C@H](Cc1csc2ccccc12)C(=O)N[C@H](Cc1c[nH]c2ccccc12)C(=O)N[C@@H](Cc1ccccc1)C(=O)NC1(C(N)=O)CCNCC1 [Compound 7] (Ac-[dK][dBta][dW]F[Api]-NH2)
3,223 nM,CC(=O)NCCCC[C@@H](N)C(=O)N[C@H](Cc1csc2ccccc12)C(=O)N[C@H](Cc1c[nH]c2ccccc12)C(=O)N[C@@H](Cc1ccccc1)C(=O)NC1(C(N)=O)CCNCC1 [Compound 10] (H-[dK](Ac)[dBta][dW]F[Api]-NH2)
4,150 nM,NC(=O)NCCC[C@@H](N)C(=O)N[C@H](Cc1csc2ccccc12)C(=O)N[C@H](Cc1c[nH]c2ccccc12)C(=O)N[C@@H](Cc1ccccc1)C(=O)NC1(C(N)=O)CCNCC1 [Compound 1] (H-[dCit][dBta][dW]F[Api]-NH2)
5,57.4 nM,CCCC[C@H](N)C(=O)N[C@H](Cc1csc2ccccc12)C(=O)N[C@H](Cc1c[nH]c2ccccc12)C(=O)N[C@@H](Cc1ccccc1)C(=O)NC1(C(N)=O)CCNCC1 [Compound 20] (H-[Nle][dBta][dW]F[Api]-NH2)
6,54.1 nM,NC(=O)C1(NC(=O)[C@H](Cc2ccccc2)NC(=O)[C@@H](Cc2c[nH]c3ccccc23)NC(=O)[C@@H](Cc2csc3ccccc23)NC(=O)CC23CC4CC(CC(N)(C4)C2)C3)CCNCC1 [Compound 28] (X5-[dBta][dW]F[Api]-NH2)
7,42.6 nM,CCCC[C@@H](N)C(=O)N[C@H](Cc1csc2ccccc12)C(=O)N[C@H](Cc1c[nH]c2ccccc12)C(=O)N[C@@H](Cc1ccccc1)C(=O)NC1(C(N)=O)CCNCC1 [Compound 19] (H-[dNle][dBta][dW]F[Api]-NH2)
8,32.8 nM,NC(=O)C1(NC(=O)[C@H](Cc2ccccc2)NC(=O)[C@@H](Cc2c[nH]c3ccccc23)NC(=O)[C@@H](Cc2csc3ccccc23)NC(=O)[C@H]2CNCCO2)CCNCC1 [Compound 27] (X4-[dBta][dW]F[Api]-NH2)
9,23.5 nM,CC(C)(C)[C@H](N)C(=O)N[C@H](Cc1csc2ccccc12)C(=O)N[C@H](Cc1c[nH]c2ccccc12)C(=O)N[C@@H](Cc1ccccc1)C(=O)NC1(C(N)=O)CCNCC1 [Compound 18] (H-[Tle][dBta][dW]F[Api]-NH2)
